Measurements reported in patent US20210369691A1, “METHODS AND COMPOSITIONS FOR IMPROVING BONE MARROW HEMATOPOIETIC FUNCTIONS” (Sun Yat-Sen University, priority 2018, published 2021).

Legend:
platelets [1] = test: Platelet recovery in peripheral blood after 5FU; assay type: in vivo, mice; conditions: after 5FU 150 mg/kg once; ABC294640 10 mg/kg every other day; days 0, 1, 5, 11; vs solvent control; FIG. 6
Procedure: Preparation of the SphK2 inhibitor was as described in Example 4. Twelve 8-week-old C57 mice purchased from Laboratory Animal Center, Sun Yat-sen University were selected and divided evenly into two groups. The mice were intraperitoneally injected with 5FU at a dose of 150 mg/kg once. The injection of the inhibitor ABC294640 and the solvent control solution was as described in Example 4, which started from the day after 5-fluorouracil injection, followed by injections once every other day, at a dose of 10 mg/kg, until the end of the experiment. Periphery blood (PB) of each mouse was separately collected to determine white blood cell (WBC) counts 0, 1, 5 and 11 days after 5-FU administration. T-test analysis was carried out using Graphpad6.0, and differences were considered statistically significant when P<0.05.
The experiment was conducted as described in Example 5. Periphery blood (PB) of each mouse was separately collected to determine platelets (PLT) counts 0, 1, 5 and 11 days after 5-FU administration. T-test analysis was carried out using Graphpad6.0, and differences were considered statistically significant when P<0.05.

[2] = Survival after repeated high-dose 5FU chemotherapy; assay type: in vivo, mice; conditions: 5FU 150 mg/kg every 7 days, two times; ABC294640 10 mg/kg every other day; vs control group; FIG. 9
Procedure: Preparation of SphK2 inhibitors was as described in Example 4. […] 8-week-old C57 mice purchased from Laboratory Animal Center, Sun Yat-sen University were selected and divided evenly into two groups. The mice were intraperitoneally injected with 5FU at a dose of 150 mg/kg, once every 7 days for two times in total. The inhibitor ABC294640 was injected starting from the day after 5FU injection, then injected once every other day, at a dose of 10 mg/kg, until the end of the experiment. Comparison of overall survival rates was performed using the Mantel_Cox log-rank test and differences were considered statistically significant when P<0.05.

white blood cells = test: White blood cell recovery after bone marrow transplantation; assay type: in vivo, mice; conditions: 7-35 days after bone marrow transplantation; ABC294640 10 mg/kg every other day; vs solvent control
Procedure: (§1) Twenty-five 8-week-old C57 mice (purchased from Laboratory Animal Center, Sun Yat-sen University) were selected and kept in a specific pathogen free (SPF) environment. 5 mice were randomly selected and sacrificed by cervical dislocation. Femurs and tibias were taken and the bone marrow was obtained from the bone marrow cavity with an 1 ml syringe. Bone marrow was dispersed to form a single cell suspension and lysed with red blood cell lysis buffer for 2 min to remove red blood cells, followed by filtering through a 70 μm filter screen to obtain a single cell suspension. The other 20 mice were treated with X-ray radiation at a dose of 900 cGy, and were injected with 400,000 of the prepared bone marrow single cell suspension via tail vein, respectively. Then, the recipient mice were divided evenly into 2 groups, and mice of the ABC294640 treatment group were subjected to intraperitoneal injection of ABC294640 every other day. Mice in the control group was injected with a solvent solution control (1:1 of physiological saline: PEG400) solution. ABC294640 was purchased from Selleck and dissolved in dimethyl sulfoxide (DMSO), and diluted with a mixture solution of polyethylene glycol 400 (PEG400) and physiological saline (1:1) to be administered at a dose of 10 mg/kg.
(§2) Preparation of SphK2 inhibitors was as described in Example 10. […]

platelets [3] = test: Platelet recovery after bone marrow transplantation; assay type: in vivo, mice; conditions: 7-35 days after bone marrow transplantation; ABC294640 10 mg/kg every other day; vs solvent control
Procedure: as §1, §2

hematopoietic stem cells [4] = test: Hematopoietic repopulation by transplantation of bone marrow cells from inhibitor-treated mice; assay type: in vivo
Procedure: To analyze whether Sphk2 deficient hematopoietic stem cells have increased hematopoietic function, 100 hematopoietic stem cells (Lin^−Sca-1^+c-Kit^+CD150^+CD48^−) from Sphk2 deficient mice or control donor mice were transplanted into irradiated wide-type recipients along with 2×10^5 CD45.1 bone marrow cells. Adult CD45.1 recipient mice were irradiated with an Orthovoltage X-ray source delivering approximately in two equal doses of 450 cGy at least 3 hours apart. Peripheral blood was collected from the tail vein every 4 weeks after the transplantation. Hematopoietic repopulation function was examined from donor-derived blood cells. To evaluate the hematopoietic function of the hematopoietic stem cells, 2×10^5 bone marrow cells from Sphk2 inhibitor or solvent control treated mice were transplanted into irradiated recipients (as described in Example 13). Peripheral blood was collected from the tail vein every 4 weeks after transplantation. The hematopoietic repopulation function was examined from donor-derived blood cells. The Sphk2 inhibitor was prepared as described in Example 4. Briefly, ABC294640 was purchased from Selleck and dissolved in dimethyl sulfoxide (DMSO), which was finally diluted with a mixture solution of polyethylene glycol 400 (PEG400) and physiological saline (1:1) to be administered at a dose of 10 mg/kg. […]

hematopoietic stem cells [5] = test: Serial transplantation repopulation assay of bone marrow cells after 5FU and ABC294640 treatment; assay type: in vivo, mice
From the text: FIG. 28. illustrates the quantification of functional HSCs by transplantation assay. 2×10^5 bone marrow cells from C57BL/6J mice after 5FU and ABC294640 or vehicle control treatment were transplanted into […] mice along with 2×10^5 recipient bone marrow cells. 1×10^6 bone marrow cells from primary or secondary recipient mice were transplanted into […] mice in secondary or tertiary recipients respectively. PB analysis for total engrafted donor cells at the indicated number of weeks after transplantation. FIG. 29. illustrates the percentage of donor-derived B, T and myeloid lineage cells at 16 weeks after transplantation. Repopulation analyses was also performed to investigate whether ABC294640 treatment functionally promotes HSC regeneration after chemotherapeutic stress.

[6] = 16 weeks after transplantation, FIG. 29
[7] = at 16 weeks, donor bone marrow after 5FU and ABC294640 vs solvent control, FIG. 28

SMILES: O=C(NCc1ccncc1)C12CC3CC(C1)CC(c1ccc(Cl)cc1)(C3)C2 [ABC294640, 3-(4-chloro-phenyl)-adamantane-1-carboxylic acid (pyridin-4-ylmethyl)-amide]
- number of platelets from the peripheral blood (platelets [1]): significantly increased
- survival period [2]: significantly (***P<0.001) prolonged
- number of white blood cells in the peripheral blood (white blood cells): significantly (*P<0.05, **P<0.01 and ***P<0.001) increased
- number of platelets in the peripheral blood (platelets [3]): significantly (*P<0.05, and ***P<0.001) increased
- increase of hematopoietic reconstitution level (hematopoietic stem cells [4]; 16 weeks after transplantation of 2x10^5 bone marrow cells from treated mice, FIG. 14 panel c): 1.5 fold
- generation of multi-hematopoietic lineages in recipients (hematopoietic stem cells [4]; recipients of bone marrow cells from inhibitor-treated mice, FIG. 14 panel d): able to generate multi-hematopoietic lineages
- lymphopoiesis in recipients (hematopoietic stem cells [5]; [6]): markedly promoted lymphopoiesis
- myeloid skewing in recipients (hematopoietic stem cells [5]; [6]): suppressed myeloid skewing
- increase of reconstitution, primary transplantation (hematopoietic stem cells [5]; [7]): about 1.7 fold
- increase of reconstitution, secondary transplantation (hematopoietic stem cells [5]; [7]): about 1.5 fold
- increase of reconstitution, tertiary transplantation (hematopoietic stem cells [5]; [7]): about 1.9 fold
